The results in this text go back to patent US9274102B2, “Method of screening for an inhibitor of odor cause by furaneol” (Kao Corporation, priority 2013, dated 2016).

By inhibition is commonly meant the relative decrease from the control value, in per cent.

SMILES strings stand for the structures. Bounds are passed on as bounds.

Assay [1] addresses T1, olfactory receptor OR5K1 (Homo sapiens, UniProt Q8NHB7).
T1 construct: Flag-Rho tag (N); expressed in transfected cells; host or cells: HEK293
T1 sequence (Q8NHB7 1-308): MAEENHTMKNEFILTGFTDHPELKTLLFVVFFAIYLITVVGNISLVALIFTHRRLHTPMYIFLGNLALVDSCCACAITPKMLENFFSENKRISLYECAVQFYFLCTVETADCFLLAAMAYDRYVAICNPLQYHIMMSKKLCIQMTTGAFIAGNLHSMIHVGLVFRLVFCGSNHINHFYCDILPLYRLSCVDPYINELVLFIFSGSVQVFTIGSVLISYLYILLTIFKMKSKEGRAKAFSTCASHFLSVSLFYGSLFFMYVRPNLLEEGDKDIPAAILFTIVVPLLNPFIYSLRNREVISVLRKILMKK
As to the kind of experiment: Antagonistic activity against the response of OR5K1 to Furaneol (luciferase reporter gene assay, HEK293 cells). It is filed as cell-based. The following applies: Furaneol 3 mM, test substance 100 μM; OR5K1-expressing HEK293 cells; read-out: rate of inhibition of the response of OR5K1 to Furaneol. How it is done: 84 types of test substances were examined for their antagonistic activity against the response of the olfactory receptor OR5K1 to Furaneol.
Furaneol (3 mM) and each test substance (100 μM) were added to HEK293 cells allowed to express the olfactory receptor OR5K1 by the same procedures as in Example 2. The response of the olfactory receptor was measured to evaluate change in receptor response caused by the addition of the test substance.
The rate of inhibition of the receptor response by the test substance was calculated as follows: firefly luciferase-derived luminescence intensity (Y) in the olfactory receptor OR5K1-expressing cells without Furaneol stimulation was subtracted from firefly luciferase-derived luminescence intensity (X) induced by stimulation with Furaneol alone to determine receptor activity (X−Y) based on the stimulation with Furaneol alone. Likewise, the luminescence intensity (Y) in the cells without Furaneol stimulation was subtracted from luminescence intensity (Z) induced by stimulation with the mixture of Furaneol and the test substance to determine receptor activity (Z−Y) in the presence of the test substance. The rate of reduction in the receptor activity (Z−Y) in the presence of the test substance with respect to the receptor activity (X−Y) based on the stimulation with Furaneol alone was calculated according to an expression shown below to determine the rate of inhibition of the receptor response by the test substance. In this assay, a plurality of independent duplicate experiments were performed. An average of the experiments in each run was obtained. Rate of inhibition (%)={1−(Z−Y)/(X−Y)}×100
On the technique in general: Reporter assays use an easily measured gene product as a stand-in for the process of interest.

In assay [2] the target is T1, olfactory receptor OR5K1. The assay is described as follows: Luciferase reporter gene assay: response of olfactory receptors expressed on HEK293 cells to Furaneol. In kind it is cell-based. The procedure:
HEK293 cells expressing each of 400 types of human olfactory receptors were prepared. Each reaction solution having the composition shown in Table 1 was prepared, then left standing for 15 minutes in a clean bench, and then added to each well of a 96-well plate (Becton, Dickinson and Company). Subsequently, the HEK293 cells (3×10^5 cells/cm^2) were inoculated thereto at 100 μL/well and then cultured at 37° C. for 24 hours in an incubator kept at 5% CO2.
The olfactory receptors expressed on the HEK293 cells are conjugated with intracellular Gαs to activate adenylate cyclase, thereby increasing intracellular cAMP levels. In this study, their responses to Furaneol were measured using luciferase reporter gene assay which involved monitoring increase in intracellular cAMP level as luminescence intensity derived from a firefly luciferase gene (fluc2P-CRE-hygro). […]
A medium was removed from the cultures prepared in the preceding paragraph 3). […] The luciferase activity was measured using Dual-Glo™ luciferase assay system (Promega Corp.) according to the instruction manual of the product. Firefly luciferase-derived luminescence intensity induced by stimulation with Furaneol was divided by luminescence intensity in the cells without Furaneol stimulation to calculate a value as fold increase, which was in turn used as an index for response intensity. […]

Regarding `CC1COCc2cc3c(cc21)C(C)(C)C(C)C3(C)C` (centres unmarked) [galaxolide, 4,6,6,7,8,8-Hexamethyl-1,3,4,6,7,8-hexahydrocyclopenta[g]isochromene], at olfactory receptor OR5K1 [1], the inhibition at 100 µM is at least 75%. For `CC1(CO)CC1CC1CC2CC2(C)C1(C)C` [Javanol(R), (1-Methyl-2-(1,2,2-trimethylbicyclo[3.1.0]-hex-3-ylmethyl)cyclopropyl)methanol], the inhibition at 100 µM on olfactory receptor OR5K1 [1] is at least 40%. Consider `CC(C)=CCCC(C)=CC=O` [Citral], for which the inhibition at 100 µM on olfactory receptor OR5K1 [1] was at least 75%. `CC(=O)/C(C)=C/C1C(C)=CCCC1(C)C` (centres unmarked) [methyl ionone-G, (E)-3-Methyl-4-(2,6,6-trimethylcyclohex-2-en-1-yl)but-3-en-2-one]: the inhibition at 100 µM at olfactory receptor OR5K1 [1] is at least 75%. On to `CC(=O)C1=C(C)C2CC3(C1)C(C)CCC3C2(C)C` (centres unmarked) [acetylcedrene, 1-(2,3,4,7,8,8a-hexahydro-3,6,8,8-tetramethyl-1H-3a,7-methanoazulen-5-yl)-ethanone], for which the inhibition at 100 µM on olfactory receptor OR5K1 [1] was at least 75%. `CC1C/C=C/CCCCCCCCCC(=O)C1` [Muscenone(R) Delta, (5E)-3-Methylcyclopentadec-5-en-1-one]: at olfactory receptor OR5K1 [1], the inhibition at 100 µM was at least 75%.

For `CC1=C(O)C(=O)C(C)O1` (centres unmarked) [Furaneol, 2,5-dimethyl-4-hydroxy-3(2H)-furanone], the “concentration dependence of OR5K1 response to Furaneol” value on olfactory receptor OR5K1 [2] (Furaneol 0, 3, 10, 30, 100, 300, 1000 and 3000 μM, OR5K1 with human RTP1S on HEK293 cells, FIG. 2) is given as “concentration-dependent response”. Besides, on olfactory receptor OR5K1 [2] (Furaneol 3 mM, 400 types of human olfactory receptors screened in HEK293 cells, FIG. 1), the “response of olfactory receptor to Furaneol (fold increase of luminescence)” value is on record as “only the olfactory receptor OR5K1 exhibited a response”. With `CC(=O)O[C@]1(C)CC[C@@]23C[C@@H]1C(C)(C)[C@@H]2CC[C@H]3C` [Cedryl acetate], the inhibition at 100 µM on olfactory receptor OR5K1 [1] is at least 50%. The same measure, in the same setting: for `CCC(=CCC1CC=C(C)C1(C)C)CO` (centres unmarked) [bangalol, 2-Ethyl-4-(2,2,3-trimethyl-3-cyclopenten-1-yl)-2-buten-1-ol] the value was at least 50%. On to `CC(=O)c1cc2c(cc1C)C(C)(C)C(C)CC2(C)C` [Tonalid(R), 1-(5,6,7,8-tetrahydro-3,5,5,6,8,8-hexamethyl-2-naphthalenyl)-ethanone], for which, on olfactory receptor OR5K1 [1], the inhibition at 100 µM was at least 75%. On the same count and under the same terms, in the case of `CC(=O)C1(C)CC2=C(CCCC2(C)C)CC1C` (centres unmarked) [Iso E Super, 7-Acetyl-1,2,3,4,5,6,7,8-octahydro-1,1,6,7-tetramethyl-naphthalene] it was at least 75%; in that of `Cc1ccc(C(C)C)c(O)c1` [thymol, 5-Methyl-2-(1-methylethyl)-phenol], at least 75%; in that of `CC(C)(C)c1ccc(CCC=O)cc1` [bourgeonal, 3-(4-tert-Butylphenyl)propanal], at least 75%.
